Experiments:
Assay type in all cases: cell-based, Human
[1] = tested on: MBA-MB-231 (breast cancer); assay: Test for inhibition of tumor cell growth (SRB), MBA-MB-231; conditions: Homo sapiens; 48 hours, SRB staining
Method: (§1) Human tumor cell lines, PC-3 (prostate cancer, ATCC, USA), MBA-MB-231 (breast cancer, ATCC, USA), ACHN (kidney cancer, ATCC, USA), and NUGC-3 (gastric cancer, ATCC, USA) were cultured in RPMI 1640 media containing 10% fetal bovine serum (FBS).
(§2) In order to measure anticancer activity, a suitable concentration of cells in RPMI 1640 media containing 5% fetal bovine serum (about 5×10^4 cells/□) was aliquotted in 96-well plates, and cultured in 5% CO2 at 37° C. On day one after aliquoting the cells, before the cells were treated with the compounds, in order to determine their concentration, 50[…] of 50% trichloroacetic acid was added to each well of time zero (T0) plate, and cells were fixed to determine zero point. The cells treated with the compounds were fixed on each well having 50[…] of 50% trichloroacetic acid after 48 hours. The final concentrations of the test compounds were 0.01, 0.03, 0.1, 0.3, and 1[…]/□. The fixed plate was washed with water and dried, and then 100[…] of 0.4% sulphorhodamine B (SRB) dissolved in 0.1% acetic acid was added to the each well to stain the cells. The plate was allowed to stand for 30 minutes, and then washed with 0.1% acetic acid. Then, the plate was dried at room temperature, and treated with 10 mM tris base (pH 10.5) to dissolve staining reagent. An absorbance measured at 540 nm was calculated as a percentage of the control group, and then the concentration of the compound that inhibited tumor cell growth (GI50(□/□)) by 50% was determined.

[2] = tested on: PC-3 (prostate cancer); assay: Test for inhibition of tumor cell growth (SRB), PC-3; conditions: Homo sapiens; 48 hours, SRB staining; read-out: GI50 PC-3 (prostate ancer)
Method: as §1, §2

[3] = tested on: NUGC-3 (gastric cancer); assay: Test for inhibition of tumor cell growth (SRB), NUGC-3; conditions: Homo sapiens, NUGC-3; 48 hours, SRB staining
Method: as §1, §2

[4] = tested on: ACHN (kidney cancer); assay: Test for inhibition of tumor cell growth (SRB), ACHN; conditions: Homo sapiens, ACHN; 48 hours, SRB staining
Method: as §1, §2

Structure (SMILES)	GI50 [1] [µg/mL]	GI50 [2] [µg/mL]	GI50 [3] [µg/mL]	GI50 [4] [µg/mL]
CCCCCCCCCCCCCCS(=O)(=O)N1CC[N+](CC)(Cc2ccc(F)cc2)CC1 [Example 68, 1-ethyl-1-(4-fluorobenzyl)-4-(tetradecane-1-sulfonyl)piperazin-1-ium bromide]	1.59	0.71	1.05	1.19
CCCCCCCCCCCCCCS(=O)(=O)N1CC[N+](C)(Cc2ccccc2)CC1 [Example 70, 1-benzyl-1-methyl-4-(tetradecane-1-sulfonyl)piperazin-1-ium bromide]	0.87	0.49	0.53	1.11
CCCCCCCCCCCCCCS(=O)(=O)N1CC[N+](C)(Cc2ccc(F)cc2)CC1 [Example 71, 1-(4-fluorobenzyl)-1-methyl-4-(tetradecane-1-sulfonyl)piperazin-1-ium bromide]	1.14	0.65	0.82	1.42
C=CC[N+]1(CC)CCN(S(=O)(=O)CCCCCCCCCCCCCCCCCC)CC1 [Example 72, 1-allyl-1-ethyl-4-(octadecane-1-sulfonyl)piperazin-1-ium bromide]	1.37	0.73	0.57	0.71
CCCCCCCCCCCCCCCCCCS(=O)(=O)N1CC[N+](CC)(Cc2ccccc2)CC1 [Example 73, 1-benzyl-1-ethyl-4-(octadecane-1-sulfonyl)piperazin-1-ium bromide]	1.75	0.8	0.85	1.87
CCCCCCCCCCS(=O)(=O)N1CC[N+](CC)(Cc2ccccc2)CC1 [Example 79, 1-benzyl-4-(decane-1-sulfonyl)-1-ethyl-piperazin-1-ium bromide]	> 10	0.85	1.24	4.41
CCCCCCCCCCCCS(=O)(=O)N1CC[N+](CC)(Cc2ccccc2)CC1 [Example 84, 1-benzyl-4-(dodecane-1-sulfonyl)-1-ethyl-piperazin-1-ium bromide]	1.35	0.74	0.75	1.12
CCCCCCCCCCS(=O)(=O)N1CC[N+](CC)(Cc2ccc(F)cc2)CC1 [Example 87, 4-(decane-1-sulfonyl)-1-ethyl-1-(4-fluorobenzyl)-piperazin-1-ium bromide]	> 10	1.25	1.56	> 10
CCCCCCCCCCCCS(=O)(=O)N1CC[N+](C)(Cc2ccc(F)cc2)CC1 [Example 88, 4-(dodecane-1-sulfonyl)-1-(4-fluorobenzyl)-1-methyl-piperazin-1-ium bromide]	1.59	0.68	0.93	1.37
CCCCCCCCCS(=O)(=O)N1CC[N+](CC)(Cc2cccc([N+](=O)[O-])c2)CC1 [Example 89, 1-ethyl-1-(3-nitrobenzyl)-4-(nonylsulfonyl)piperazin-1-ium bromide]	> 10	4.02	> 10	> 10
CCCCCCCCCCS(=O)(=O)N1CC[N+](CC)(Cc2cccc([N+](=O)[O-])c2)CC1 [Example 91, 4-(decane-1-sulfonyl)-1-ethyl-1-(3-nitrobenzyl)piperazin-1-ium bromide]	> 10	0.83	1.54	4.82
CCCCCCCCCCCCCCS(=O)(=O)N1CC[N+](CC)(CC)CC1 [Example 94, 1,1-diethyl-4-(tetradecane-1-sulfonyl)piperazin-1-ium iodide]	0.46	0.53	0.37	0.31
CCCCCCCCCCCCCCCCCCS(=O)(=O)N1CC[N+](C)(Cc2ccc(F)cc2)CC1 [Example 96, 1-(4-fluorobenzyl)-1-methyl-4-(octadecane-1-sulfonyl)piperazin-1-ium bromide]	0.6	0.48	2.73	3.25
CCCCCCCCCCCCS(=O)(=O)N1CC[N+](CC)(Cc2ccc(F)cc2)CC1 [Example 97, 4-(dodecane-1-sulfonyl)-1-ethyl-1-(4-fluorobenzyl)piperazin-1-ium bromide]	1.43	0.7	0.66	1.21
CCCCCCCCCCCCS(=O)(=O)N1CC[N+](CC)(Cc2cccc([N+](=O)[O-])c2)CC1 [Example 98, 4-(dodecane-1-sulfonyl)-1-ethyl-1-(3-nitrobenzyl)piperazin-1-ium bromide]	1.01	0.35	0.28	1.05

Results, then the compound that gave them:

GI50 [1] [µg/mL]	GI50 [2] [µg/mL]	GI50 [3] [µg/mL]	GI50 [4] [µg/mL]	Structure (SMILES)
1.72	1	0.85	1.25	C=CC[N+]1(C)CCN(S(=O)(=O)CCCCCCCCCCCCCCCCCC)CC1 [Example 74, 1-allyl-1-methyl-4-(octadecane-1-sulfonyl)piperazin-1-ium bromide]
> 10	1.84	3.29	4.45	CCCCCCCCCCS(=O)(=O)N1CC[N+](C)(C)CC1 [Example 75, 4-(decane-1-sulfonyl)-1,1-dimethyl-piperazin-1-ium iodide]
4.02	0.54	0.99	3.5	CCCCCCCCCCS(=O)(=O)N1CC[N+](C)(Cc2ccccc2)CC1 [Example 76, 1-benzyl-4-(decane-1-sulfonyl)-1-methyl-piperazin-1-ium bromide]
> 10	0.83	1.55	3.47	C=CC[N+]1(C)CCN(S(=O)(=O)CCCCCCCCCC)CC1 [Example 77, 1-allyl-4-(decane-1-sulfonyl)-1-methyl-piperazin-1-ium bromide]
> 10	1.06	1.81	4.15	CCCCCCCCCCS(=O)(=O)N1CC[N+](C)(CC)CC1 [Example 78, 4-(decane-1-sulfonyl)-1-ethyl-1-methyl-piperazin-1-ium iodide]
> 10	0.85	0.89	3.07	C=CC[N+]1(CC)CCN(S(=O)(=O)CCCCCCCCCC)CC1 [Example 80, 1-allyl-4-(decane-1-sulfonyl)-1-ethyl-piperazin-1-ium bromide]
1.49	0.61	0.58	1.48	CCCCCCCCCCCCS(=O)(=O)N1CC[N+](C)(Cc2ccccc2)CC1 [Example 81, 1-benzyl-4-(dodecane-1-sulfonyl)-1-methyl-piperazin-1-ium bromide]
1.4	0.71	0.75	0.86	C=CC[N+]1(C)CCN(S(=O)(=O)CCCCCCCCCCCC)CC1 [Example 82, 1-allyl-4-(dodecane-1-sulfonyl)-1-methyl-piperazin-1-ium bromide]
1.42	0.61	0.45	0.69	CCCCCCCCCCCCS(=O)(=O)N1CC[N+](C)(CC)CC1 [Example 83, 4-(dodecane-1-sulfonyl)-1-ethyl-1-methyl-piperazin-1-ium iodide]
1.01	0.41	0.22	0.53	C=CC[N+]1(CC)CCN(S(=O)(=O)CCCCCCCCCCCC)CC1 [Example 85, 1-allyl-4-(dodecane-1-sulfonyl)-1-ethyl-piperazin-1-ium bromide]
4.48	0.88	1.99	3.79	CCCCCCCCCCS(=O)(=O)N1CC[N+](C)(Cc2ccc(F)cc2)CC1 [Example 86, 4-(decane-1-sulfonyl)-1-(4-fluorobenzyl)-1-methyl-piperazin-1-ium bromide]
2.56	1.57	1.98	3.22	CCCCCCCCCCCCS(=O)(=O)N1CC[N+](C)(Cc2ccc(C)cc2)CC1 [Example 90, 4-(dodecane-1-sulfonyl)-1-methyl-1-(4-methylbenzyl)piperazin-1-ium bromide]
1.62	0.45	0.21	0.81	CCCCCCCCCCCS(=O)(=O)N1CC[N+](CC)(CC)CC1 [Example 92, 1,1-diethyl-4-(undecane-1-sulfonyl)piperazin-1-ium iodide]
2.71	0.67	0.62	1.11	CCCCCCCCCCCS(=O)(=O)N1CC[N+](C)(CC)CC1 [Example 93, 1-ethyl-1-methyl-4-(undecane-1-sulfonyl)piperazin-1-ium iodide]
0.64	0.35	2.24	0.46	CCCCCCCCCCCCCCS(=O)(=O)N1CC[N+](C)(CC)CC1 [Example 95, 1-ethyl-1-methyl-4-(tetradecane-1-sulfonyl)piperazin-1-ium iodide]

— patent US20100144708A1, “HETEROCYCLIC COMPOUNDS CONTAINING NITROGEN ATOMS OR PHARMACEUTICALLY ACCEPTABLE SALTS THEREOF, PROCESS FOR THE PREPARATION THEREOF AND PHARMACEUTICAL COMPOSITION COMPRISING THE SAME FOR TREATMENT OF CANCER” (Korea Research Instititute of Bioscience and Biotechnology, priority 2006, published 2010)
